Assay [1] has as its system breast cancer cell lines MDA-MB-231, BT20, MDA-MD468, 4T1, MCF-7, SKBR3. The assay can be described thus: Colony formation assay (long-term cell viability). The following applies: MDA-MB-231, BT20, MDA-MD468, 4T1, MCF-7 (ER+, PR+), SKBR3 (Her2+); FIG. 1B. The assay is classed as cell-based. How it is done:
The long-term effects of SLLN-15 on tumor cell growth were assessed using the colony formation assay. Cells were trypsinized and plated in triplicate wells in 12-well plate (500 cells/well). After six hours of incubation, cells were treated with the indicated concentrations of SLLN-15 or DMSO. 7 days after the cells plated and treated, they were washed and stained with a mixture of 0.05% w/v crystal violet and 6% v/v glutaraldehyde, and the colonies >100 μm in diameter were counted using a colony counter (Oxford Optronix Gelcount, Inc., Milton Park, Abingdon, UK).

For assay [2], the system named is MDA-MB-231 and BT-20 cells. As to the kind of experiment: MTT assay (short-term cell viability). It is filed as cell-based. As for the experimental part:
The short-term effects of SLLN-15 on tumor cell growth were assessed using the 3-(4,5-dimethylthiazol-2-yl)-2,5-diphenylte-trazolium bromide (MTT; Sigma) assay. Cells were seeded at a density of 5000 cells/well in a 96-well plate and treated with SLLN-15 as indicated concentration or DMSO for 24 hours. MTT solution (5 mg/ml in RPMI 1640 medium) was added (20 μl/well), and plates were incubated for 4 hours in dark at 37° C., then the purple formazan crystals were then dissolved in 100 μl MTT solvent (4 mM HCl and 0.1% NP-40 in isopropanol). The plates were read on FLUOstar OPTIMA microplate reader (BMG Labtech, Ortenberg, Germany) at 570 nm. Assays were performed in triplicate on three independent experiments.
In general terms: Tetrazolium dyes change colour on reduction, which living cells bring about.

The test system of assay [3] is MDA-MB-231 and BT-20 cells. The assay can be described thus: Light microscopy of cell morphology. It is filed as cell-based. The following applies: compared to control cells; more detached and shrunken cells. From the text:
FIG. S1 represents the cell morphological changes of MDA-MB-231 and BT-20 upon SLLN-15 treatment as visualized by light microscopy.
Within our quest to develop effective novel anti-cancer drug for TNBCs, we designed and synthesized a library of compounds derived from seleno-purine scaffolds. A high-throughput screening of major classes of kinases and enzymes involved in carcinogenesis identified a 4-selenomorpholinophenyl- and tetrahydroselenophene-substituted diamino-purines, namely SLLN-15 (FIG. 1A), as a potent small molecule capable of inhibiting TNBC cells. […] Subsequent cell-based assays confirmed this small molecule to inhibit the proliferation of two TNBC cell lines, BT-20 and MDA-MB-231.

In assay [4] the test system is 4T1 cells (triple-negative breast carcinoma). As to the kind of experiment: In vivo orthotopic allograft model of breast cancer. Details: species or system BALB/c mice. As for the experimental part:
All experiments were carried out according to protocol number 4101 of the McGill University Animal Care Committee. Mouse mammary carcinoma 4T1 cells (1×10^6 cells/each mouse) were transplanted into the mammary fat pad of BALB/c mice. […] Tumor size was measured using a caliper, and tumor volume was calculated as […] (length×width2). Mice were sacrificed 40 days after transplanting. Tumor tissues were isolated and fixed in 10% formalin. The lungs were fixed in 10% Bouin's fixative and lung metastatic nodules on the surface were counted using a stereomicroscope (Optimax; Leica).

Assay [5] has as its system cleaved-PARP, cleaved-caspase 3, Bcl-2 in MDA-MB-231 and BT-20 cells. As to the kind of experiment: Western blot of indicators of apoptosis. The assay is classed as cell-based. How it is done:
Sub-confluent cells were washed with PBS, lysed in RIPA buffer (50 mM Tris-HCl at pH7.5, 150 mM sodium chloride, 1% tritonX-100, 0.1% SDS, 2 mM EDTA and 25 mM sodium fluoride) supplemented with 1 mM PMSF and protease inhibitor cocktail (Roche) for 10 min on ice and centrifuged (13,000 rpm at 4° C. for 20 min) to separate cell lysate. Cell lysate (50 μg protein, as measured by the Bradford protein assay) was then added with SDS sample buffer (Tris at pH 6.8, 20% glycerol, 5% SDS, bromophenol blue and β-mercaptoethanol) and boiled for 5 min. Samples were then resolved through 13% SDS-PAGE gels, transferred to nitrocellulose membrane, blotted with specific first antibodies at different dilution in cold room overnight, and then amplified with horseradish peroxidase-conjugated secondary antibodies for 1 hour in room temperature and enhanced by chemiluminescence detection system.
Considering apoptosis is the major form of cell death induced by chemotherapeutic agent, we seek to identify whether the anticancer effect of SLLN-15 was mediated via apoptosis in breast cancer cells.
A general note: Immunoblotting shows a protein as a band on a membrane.

Assay [6] deals with MDA-MB-231 and BT-20 cells. As to the kind of experiment: BrdU labeling cell proliferation assay. The following applies: FIG. 6D. It is filed as cell-based. How it is done: The proliferation effects of SLLN-15 were assessed using the bromodeoxyuridine (BrdU) Cell proliferation Assay Kit (Biovision). Cells were seeded at a density of 5000 cells/well in a 96-well plate and treated with SLLN-15 or rapamycin (Cayman chemical) as indicated concentration or DMSO for 24 hours. The plates were read on FLUOstar OPTIMA microplate reader (BMG Labtech, Ortenberg, Germany) at 450 nm. Assays were performed in triplicate on three independent experiments.

The test system of assay [7] is MDA-MB-231-M2 or 4T1 tumors. The assay can be described thus: In vivo anti-metastatic activity in tumor-bearing mice. From the text: Breast cancer stem-like cells (BCSCs), heterogeneously subsisting as CD24low/CD44high and ALDHhigh subpopulations, are enriched in aggressive breast cancer subtypes and believed to be responsible for driving metastatic colonization. Despite evidence of a clinical association between BCSC and poor prognosis, effective therapeutic means to target this cell population is lacking. We identified SLLN-15 as a compound with selective anti-sternness activity across a panel of cell lines expressing ALDHhigh and CD24low/CD44high markers, including MDA-MB-231, SUM-149PT, BT-20, SKBR3, 4T1 and several anaplastic thyroid cell lines. […] In summary, our data foster that targeting regulatory networks driving sternness represent important therapeutic targets for treating metastatic breast disease.

SMILES strings stand for the structures.

As for `c1nc2nc(Nc3ccc(N4CC[Se]CC4)cc3)nc(N[C@H]3CC[Se]C3)c2[nH]1` [SLLN-15], the colony formation abilities result in assay [1] is “equally inhibit the colony formation abilities”. Further, in assay [2] (SLLN-15 in presence of autophagy inhibitor 3-MA, FIGS. 5D and E), the “short-term and long-term cell viability (MTT and clonogenic assay)” value is “rescued both short-term and long-term cell viability”. The “cell viability (MTT)” value in assay [2] (time-dependent, SLLN-15 compared with vorinostat, FIG. 6A) is reported as “markedly decreased cell viability”. In addition, in assay [2] (treatment for 24 hours, dose-dependent, FIG. 1C), the “overall cell viability (MTT)” value is on record as “markedly decreased overall cell viability”. The cell morphology entry in assay [3] is reported as “induced obvious morphological changes”. The tumor volumes entry in assay [4] (30 mg/kg given PO, compared to vehicle, FIG. 1D) is reported as “reduced”. The tumor weights entry in assay [4] (30 mg/kg given PO, compared to vehicle, FIG. 1E) was “reduced”. Also, in assay [4] (30 mg/kg given PO, compared to vehicle, FIGS. 1D and E), the “tumor allograft growth rate” value is “grew at a slower rate”. In addition, in assay [4] (compared with vehicle-treated animals, FIG. 1F), the “number of lung metastases” value was “significant inhibition of the number of lung metastases”. Besides, the “indicators of apoptosis: upregulation of cleaved-PARP and cleaved-caspase 3, downregulation of Bcl-2” value in assay [5] (FIG. 6B) is “not SLLN-15 treated cells”. Further, the apoptosis result in assay [5] (up to 48 hours post-exposure, breast cancer cells) is “no significant apoptosis was observed”. Moreover, in assay [6], the “anti-proliferation potency compared to rapamycin” value is “more potent anti-proliferation agents”. Also, the BrdU-positive cells result in assay [6] (dose-dependent) is recorded as “lower percentage of BrdU-positive cells”. Further, the anti-metastatic activity result in assay [7] (mice bearing MDA-MB-231-M2 or 4T1 tumors, administered intraperitoneally) is recorded as “significant anti-metastatic activity”. The “MDA-MB-231-M2 progression to metastasis” value in assay [7] (pretreatment ex vivo prior to mouse implantation) was “significantly attenuated”.

The values above are taken from US12012408B2, “Purine compounds and method for the treatment of cancer” (THE ROYAL INSTITUTION FOR THE ADVANCEMENT OF …, priority 2018, dated 2024).
